Data set [1] deals with Bacillus subtilis. In words: Inhibition of Bacillus subtilis in agar medium / Petri dish (agar cylinders method). The format is cell-based. Here is the method: (§1) Butirosin, like erythromycin, is determined by measuring the lysis zones (agar cylinders method) in an agar medium (bioMerieux) inoculated with 1000 cfu/ml of Bacillus subtilis and incubated at 37° C. for 18 hours. The bioMerieux agar medium consists of 6 g of bio-Gelytone, 3 g of yeast extract, 1.5 g of beef extract and 15 g of agar per 1 l of distilled water. The pH of the medium is adjusted to 9.
(§2) The serum samples are deposited in the wells made in the agar medium (30 μl/well). Reference solutions representing known amounts of antibiotic are also deposited in the dish.

The nature of data set [2]: Pharmacokinetics in plasma of free and encapsulated antibiotics in rabbits. Format: in vivo, male rabbits of the "White New Zealand" type.
Excerpt: In order to evaluate the influence of the encapsulation on the pharmacokinetics of two antibiotics, butirosin according to Example 6 and erythromycin according to Example 13, we carried out the determination in plasma as a function of time for these two antibiotics after administration in the free form and in the encapsulated form.
The injections are given subcutaneously and intravenously to male rabbits of the "White New Zealand" type weighing approximately 3 kg. The samples are taken at the lateral vein of the ear in amounts of 200 μl of blood/sample. The blood is immediately centrifuged at 8000 rpm for 15 min. The serum is withdrawn and stored at 4° C. until used.
as §1, §2
The amounts injected are 1 ml containing 9 mg of butirosin in the free or encapsulated form.
4 ml of a physiological solution containing 5 mg of butirosin either in the free form or encapsulated in 100 mg of BVSM are injected. The solution is prepared from 8 g/l NaCl, 0.2 g/l KCl, 0.1 g/l anhydrous CaC12 (sic), 0.1 g/l MgCl2, 3.18 g/l Na2 HPO4 and 0.2 g/l KH2 PO4, adjusted to pH 7.4.
The injections are made slowly in the external vein of the ear after vasodilatation with warm water and disinfection with ethanol at […].
The amounts injected are 1 ml containing 15 mg of free or encapsulated erythromycin. For reasons of solubility, free erythromycin is dissolved in a water/ethanol (85:15) mixture.

[3] abbreviates: Bacillus subtilis, 18 h, read-out: Diameter (standard range).

The record followed here is patent publication US5151264A, “Particulate vector useful in particular for the transport of molecules with biological activity and process for its preparation” (priority 1988, dated 1992).

With `CC[C@H]1OC(=O)[C@H](C)[C@@H](O[C@H]2C[C@@](C)(OC)[C@@H](O)[C@H](C)O2)[C@H](C)[C@@H](O[C@@H]2O[C@H](C)C[C@H](N(C)C)[C@H]2O)[C@](C)(O)C[C@@H](C)C(=O)[C@H](C)[C@@H](O)[C@]1(C)O` [Erythromycin, erythromycin], in data set [1] (setting [3]), the zone of inhibition at 10 µg/mL stood at 26 mm, the zone of inhibition at 25 µg/mL turned out to be 29 mm, the zone of inhibition at 100 µg/mL amounted to 31 mm and the zone of inhibition at 250 µg/mL amounted to 33 mm. In addition, in data set [1] (setting [3]), the zone of inhibition at 1000 µg/mL came out at 37 mm. In data set [2] (erythromycin), the “diffusion in the plasma / plasma level” value is reported as “diffuses relatively slowly in the plasma”. Further, the “diffusion in the plasma / plasma level” value in data set [2] (erythromycin, listed as Free erythromycin) is given as “higher initial level to be achieved in the plasma than the encapsulated form”.
Regarding butirosin, the “Diameter (standard range)” value in data set [1] (0.5 μg/ml) is 14 mm; in data set [1] (1 μg/ml) it was 17 mm; in data set [1] (2 μg/ml), 19 mm; in data set [1] (5 μg/ml) it was 22 mm; in data set [1] (10 μg/ml), 24 mm; in data set [1] (20 μg/ml), 26 mm. The “Diameter (standard range)” value in data set [1] (50 μg/ml) is recorded as 28 mm. Also, the “diffusion into the plasma and elimination” value in data set [2] (rabbit, in vivo, iv) is “diffuses very rapidly into the plasma and is also eliminated very rapidly”. Also, in data set [2] (rabbit, in vivo, sc), the “diffusion in the plasma / plasma level” value was “diffuses very rapidly in the plasma”. The “time after which eliminated” value in data set [2] (rabbit, in vivo, sc) was determined as 6 h.
